Among the data in PubChem BioAssay (NCI) are TGI values, retold here.

For the experiment, the system named is P388 leukemia. In words: NCI tumour cell line growth inhibition, 48 h.

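All cell lines were grown in 96-well plates and treated with compound for 48 hours. TGI denotes the concentration required for complete inhibition of growth.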

As to `CCOC(=O)C(N)CSC(=O)NC` (stereo unspecified), the TGI came to 102 µM.
